In patent US20240254119A1 (THIRD HARMONIC BIO, INC., priority 2022, published 2024):

Assay: Kinetic solubility assay
Type: physicochemical
Settings: kinetic solubility, 50 mM PB (pH 7.4), shaken 24 hours at RT
Experimental: 10 μL of 10 mM in DMSO of test article and control compounds was added into lower chambers of whatman miniuniprep vials, respectively. 490 μL of 50 mM PB (pH 7.4) was then added into lower chambers of the whatman miniuniprep vials, respectively. […] Miniuniprep vials were shaken for 24 hours at RT at the speed of 800 rpm, centrifuged 20 minutes (eg. 4000 rpm) and the filtrates were analyzed by UPLC-UV/HPLC-UV system to calculate the concentration with standard curve.
Filter Membrane: Miniuniprep (PTFE Filter Media with Polypropylene Housing) Cat. No. UN203NPUORG, GE Halthcare Whatman.

Structure (SMILES) | Solubility (μM)
CC(=O)NCc1ccc2ncc(C(=O)Nc3cc(-c4noc([C@H]5C[C@@H]5F)n4)ccc3C)n2c1 [I-9] | **** (a solubility less than or equal to 2 μM)
Cc1ccc(-c2noc([C@H]3C[C@@H]3F)n2)cc1NC(=O)c1cnc2cc(CNS(=O)(=O)C3CC3)ccn12 [I-10] | **** (a solubility less than or equal to 2 μM)
Cc1ccc(-c2noc([C@H]3C[C@@H]3F)n2)cc1NC(=O)c1cnc2ccc(CS(C)(=O)=O)cn12 [I-12] | **** (a solubility less than or equal to 2 μM)
Cc1ccc(-c2noc([C@H]3C[C@@H]3F)n2)cc1NC(=O)c1cnc2cc(N3CCCC3=O)ccn12 [I-14] | **** (a solubility less than or equal to 2 μM)
Cc1ccc(-c2noc([C@H]3C[C@@H]3F)n2)cc1NC(=O)c1cnc2ccc(CC#N)cn12 [I-15] | **** (a solubility less than or equal to 2 μM)
Cc1ccc(-c2noc([C@H]3C[C@@H]3F)n2)cc1NC(=O)c1cnc2cc(CC#N)ccn12 [I-16] | **** (a solubility less than or equal to 2 μM)
Cc1ccc(-c2noc([C@H]3C[C@@H]3F)n2)cc1NC(=O)c1cnc2cc(CNS(C)(=O)=O)ccn12 [I-17] | **** (a solubility less than or equal to 2 μM)
Cc1ccc(-c2noc([C@H]3C[C@@H]3F)n2)cc1NC(=O)c1cnc2ccc(S(C)(=O)=O)cn12 [I-18] | **** (a solubility less than or equal to 2 μM)
Cc1ccc(-c2noc([C@H]3C[C@@H]3F)n2)cc1NC(=O)c1cnn2cc(OC(F)(F)F)ccc12 [I-19] | **** (a solubility less than or equal to 2 μM)
Cc1ccc(-c2noc(C3COC3)n2)cc1NC(=O)c1cnn2cc(C(F)F)ccc12 [I-20] | **** (a solubility less than or equal to 2 μM)
COc1ccc2c(C(=O)Nc3cc(-c4noc([C@H]5C[C@@H]5F)n4)ccc3C)cnn2c1 [I-21] | **** (a solubility less than or equal to 2 μM)
Cc1ccc(-c2noc(C3COC3)n2)cc1NC(=O)c1cnc2cc(OC(F)(F)F)ccn12 [I-24] | **** (a solubility less than or equal to 2 μM)
Cc1cn2c(C(=O)Nc3cc(-c4noc([C@H]5C[C@@H]5F)n4)ccc3C)cnc2cc1C#N [I-26] | **** (a solubility less than or equal to 2 μM)
COc1cc2ncc(C(=O)Nc3cc(-c4noc([C@H]5C[C@@H]5F)n4)ccc3C)n2cc1F [I-27] | **** (a solubility less than or equal to 2 μM)
Cc1ccc(-c2noc([C@H]3C[C@@H]3F)n2)cc1NC(=O)c1cnc2cc3c(cn12)COC3 [I-28] | **** (a solubility less than or equal to 2 μM)
COc1cc2ncc(C(=O)Nc3cc(-c4noc([C@H]5C[C@@H]5F)n4)ccc3C)n2cc1C(F)F [I-29] | **** (a solubility less than or equal to 2 μM)
COC(=O)NCc1ccn2c(C(=O)Nc3cc(-c4noc([C@H]5C[C@@H]5F)n4)ccc3C)cnc2c1 [I-30] | **** (a solubility less than or equal to 2 μM)
Cc1ccc(-c2noc([C@H]3C[C@@H]3F)n2)cc1NC(=O)c1cnc2cc(CNC(=O)C(C)(C)O)ccn12 [I-31] | **** (a solubility less than or equal to 2 μM)
CC(=O)NCc1ccn2c(C(=O)Nc3cc(-c4noc([C@H]5C[C@@H]5F)n4)ccc3C)cnc2c1 [I-32] | **** (a solubility less than or equal to 2 μM)
COc1ccn2c(C(=O)Nc3cc(-c4noc([C@H]5C[C@@H]5F)n4)ccc3C)cnc2c1F [I-34] | **** (a solubility less than or equal to 2 μM)
Cc1ccc(-c2noc(C3COC3)n2)cc1NC(=O)c1cnc2cc(CC(F)(F)F)ccn12 [I-36] | **** (a solubility less than or equal to 2 μM)

Structure (SMILES) | Solubility (μM)
COc1ccn2c(C(=O)Nc3cc(-c4nc(C)no4)ccc3Cl)cnc2c1 [I-37] | **** (a solubility less than or equal to 2 μM)
O=C(Nc1cc(-c2noc(C3COC3)n2)ccc1Cl)c1cnc2cc(C(F)F)ccn12 [I-38] | **** (a solubility less than or equal to 2 μM)
COc1cc2ncc(C(=O)Nc3cc(-c4noc([C@H]5C[C@@H]5F)n4)ccc3C)n2cc1C(F)(F)F [I-41] | **** (a solubility less than or equal to 2 μM)
COc1cc2ncc(C(=O)Nc3cc(-c4noc([C@H]5C[C@@H]5F)n4)ccc3C)n2cc1C [I-42] | **** (a solubility less than or equal to 2 μM)
Cc1ccc(-c2noc(C3COC3)n2)cc1NC(=O)c1cnc2cc(C(C)(F)F)ccn12 [I-43] | **** (a solubility less than or equal to 2 μM)
Cc1ccc(-c2noc([C@H]3C[C@@H]3F)n2)cc1NC(=O)c1cnc2cc(C(C)(F)F)ccn12 [I-44] | **** (a solubility less than or equal to 2 μM)
COc1ccn2c(C(=O)Nc3cc(-c4noc(C5COC5)n4)ccc3Cl)cnc2c1 [I-47] | **** (a solubility less than or equal to 2 μM)
Cc1ccc(-c2noc(C3COC3)n2)cc1NC(=O)c1cnc2cc(CF)ccn12 [I-48] | **** (a solubility less than or equal to 2 μM)
Cc1ccc(-c2noc([C@H]3C[C@@H]3F)n2)cc1NC(=O)c1cnc2cc(CF)ccn12 [I-49] | **** (a solubility less than or equal to 2 μM)
Cc1ccc(-c2noc(C3COC3)n2)cc1NC(=O)c1cnc2cc(COCCO)ccn12 [I-50] | *** (a solubility greater than 2 μM and less than or equal to 10 μM)
Cc1ccc(-c2noc(C3COC3)n2)cc1NC(=O)c1cnc2cc(C(F)F)ccn12 [I-52] | **** (a solubility less than or equal to 2 μM)
COc1ccn2c(C(=O)Nc3cccc(-c4noc([C@H]5C[C@@H]5F)n4)c3F)cnc2c1 [I-53] | **** (a solubility less than or equal to 2 μM)
O=C(Nc1cc(-c2noc(C3CC3F)n2)ccc1Cl)c1cnc2cc(COCCO)ccn12 (centres unmarked) [I-56] | **** (a solubility less than or equal to 2 μM)
O=C(Nc1cccc(-c2noc(C3CC3F)n2)c1F)c1cnc2cc(COCCO)ccn12 (centres unmarked) [I-57] | **** (a solubility less than or equal to 2 μM)
Cc1ccc(-c2noc(C3CC3(F)F)n2)cc1NC(=O)c1cnc2cc(COCCO)ccn12 (centres unmarked) [I-58] | ** (a solubility greater than 10 μM and less than or equal to 50 μM)
Cc1ccc(-c2noc(C3CC3F)n2)cc1NC(=O)c1cnc2cc(COC(C)CO)ccn12 (centres unmarked) [I-59] | * (a solubility greater than 50 μM)
Cc1ccc(-c2noc(C3CC3F)n2)cc1NC(=O)c1cnn2cccc(C(F)F)c12 (centres unmarked) [I-60] | **** (a solubility less than or equal to 2 μM)
Cc1ccc(-c2noc(C3CC3F)n2)cc1NC(=O)c1cnc2cc(COC(C)(C)CO)ccn12 (centres unmarked) [I-64] | ** (a solubility greater than 10 μM and less than or equal to 50 μM)
O=C(Nc1cc(-c2noc(C3CC3(F)F)n2)ccc1Cl)c1cnc2ccccn12 (centres unmarked) [I-74] | **** (a solubility less than or equal to 2 μM)
Cc1ccc(-c2noc([C@H]3CC4(CC4)CN3)n2)cc1NC(=O)c1cnc2ccccn12 [I-231] | ** (a solubility greater than 10 μM and less than or equal to 50 μM)
